Data: patent US7033999B2, “Nitrosated and nitrosylated heme proteins” (Brigham and Women's Hospital, priority 1991, dated 2006)

How the values were obtained:
[1] = tested on: endothelium-denuded rabbit aortic strips; assay: Vessel relaxation bioassay; format: cell-based
Experimental: New Zealand White female rabbits weighing 3–4 kg were anesthetized with 30 mg/kg IV sodium pentobarbital. Descending thoracic aortae were isolated and placed immediately in a cold physiologic salt solution (Kreb's) (mM): NaCl, 118; CKl, 4.7; CaCl2, 2.5; MgSO4, 1.2; KH2PO4, 1.2; NaHCO3, 12.5; and D-glucose, 11.0. The vessels were cleaned of adherent connective tissue, and the endothelium removed by gentle rubbing with a cotton tipped applicator inserted into the lumen, after which the vessel was cut into 5 mm rings. The rings were mounted on stirrups and connected to transducers (model FT03C Grass Instruments, Quincy, Mass.) by which changes in isometric tension were recorded.
Samples were added to a standard bioassay in which vessel rings were suspended in glass chambers containing seven mil of oxygenated Kreb's buffer, in a standard bioassay (Cook et al., Am. J. Physiol. 28:H804 (1989), herein incorporated by reference). Sustained contractions, to 2 gm tension, were induced with 1 μM epinephrine, after which the effects of t-PA and S—NO-t-PA were tested. In certain experiments the guanylate cyclase inhibitor, methylene blue, was preincubated with vessel rings for 15 minutes prior to initiation of contractions.
The vasodilatory actions of S-nitroso-BSA were examined in a standard bioassay containing endothelium-denuded rabbit aortic strips in Kreb's buffer, pH 7.5, at 37°, as described in Example 6.
In vessel experiments, relaxations to S—NO-BSA are expressed as-percent of tone induced by 1.0 μM norepinephrine.

gel-filtered platelets [2] = assay: Platelet aggregation (nephelometric aggregometry); format: cell-based, human
Experimental: Venous blood, anticoagulated with 1-mM trisodium citrate, was obtained from volunteers who had not consumed acetylsalicylic acid for at least ten days. Platelet-rich plasma (PRP) was prepared by centrifugation at 150 g for ten minutes at 25° C. Platelet counts were determined with a Coulter counter (model ZM; Coulter Electronics, Hialeah, Fla.).
Platelets were gel-filtered on a 4× 10 cm column of Sepharose 2B in Tyrode's Hepes buffer as described previously (Hawiger et al., Nature 2831:195–198 (1980), herein incorporated by reference). Platelets were typically suspended at a concentration of 1.5×10^8/ml and were used within 30 minutes of preparation. Platelet aggregation was monitored using a standard nephelometric technique (Born, et al., J. Physiol. 168:178–195 (1963), herein incorporated by reference), in which 0.3-ml aliquots of gel-filtered platelets were incubated at 37° C. and stirred at 1000 rpm in a PAP-4 aggregometer (Biodata, Hatboro, Pa.). Gel-filtered platelets were preincubated with t-PA or S—NO-t-PA for up to 45 minutes and aggregations induced with 5 μM ADP or 0.025 U/ml thrombin.
Aggregations were quantified by measuring the maximal rate or extent of light transmittance and expressed as a normalized value relative to control aggregations.
The effect of S-nitroso-BSA on platelet aggregation was studied, using a gel-filtered platelet preparation, as previously described (Hawiger et al., Nature 2831:195 (1980)) and suspended at 150,000 platelets/ul in HEPES buffer, pH 7.35. S—NO-BSA was incubated with platelets for ten minutes at 37° C. in a PAP-4 aggregometer (BioData, Hatboro, Pa.), after which aggregations were induced with 5 μM ADP. Aggregations were quantified by measuring the extent of change of light transmittance and expressed as a normalized value relative to control aggregations.

hemoglobin = hemoglobin (Bos taurus, UniProt P01966+P02070); settings: for reaction at the redox metal (iron-binding site) of hemoglobin: UV spectrum, SNOAC over 15 minutes
gel-filtered platelets [3] = assay: Platelet aggregation (nephelometric aggregometry); format: cell-based, human; remark: listed apart in the source
[4] = Canine model of subtotal coronary artery occlusion; format: in vivo, dog
Source text: (§1) These extremely potent, but reversible anti-platelet properties in vivo are unmatched by classic nitrates. […] As shown in FIGS. 12–14, the constellation of anti-platelet effect, long duration of action, and increased coronary blood flow, is unmatched by other nitroso-compounds. Thus, S-nitroso-proteins have very unique hemodynamic and bioactive profiles.

trachea rings = assay: Airway smooth muscle relaxation, trachea rings; format: cell-based, guinea pig
Source text: (§2) Male Hartley guinea pigs (500–600 g) were anesthetized by inhalation of enflurane to achieve a surgical plane of anesthesia. The trachea were excised and placed in Kreb's-Hanseleit buffer (mM); NaCl 118, KCl 5.4, NaH2PO4 1.01, glucose 11.1, NaHCO3 25.0, MgSO4 0.69, CaCl 2.32, pH 7.4. The airways were then dissected free from surrounding fat and connective tissue and cut into rings 2–4 mm in diameter. The trachea rings were placed in sterile Medium 199 containing 1% antibiotic/antimycotic mixture in an atmosphere of 5% CO2, […], 55% N2 and kept for up to 48 hours in tissue culture. The experiments were also performed on human airways isolated by the same method.
(§3) Trachea rings were mounted on stirrups and connected to transducers (model FTO3C Grass), by which changes in isometric tension were measured. Rings were then suspended in 10 cc of oxygenated (95% O2, 5% CO2) buffer. Airway rings were equilibrated for 60 minutes under a load of 1 gm and then primed twice by exposure to 100 μM methacholine. The rings were contracted with various agonists at concentrations determined to generate 50% (±16% S.D.) of maximum tone, after which the effect of S—NO-BSA was assessed. In selected experiments, relaxation responses were determined in the presence of hemoglobin, or after rings had been preexposed to methylene blue for 30 minutes.

[5] = tested on: RFL-6 lung fibroblasts containing a soluble guanylate cyclase; assay: Cyclic GMP in cultured RFL-6 lung fibroblasts; format: cell-based
Experimental: Consonant with the mechanism of other nitro(so)-vasodilators (Ignarro, L. J. Circ. Res. 65:1 (1989)), relaxations were abolished by methylene blue, an inhibitor of guanylate cyclase (FIG. 11a). This mechanism was confirmed by showing that S-nitroso-BSA (18 μM) induces 3.5-fold increases (n=2) in cyclic GMP over basal levels relative to BSA alone in cultured RFL-6 lung fibroblasts containing a soluble guanylate cyclase exquisitely sensitive to NO (Forstermann et al., Mol. Pharmacol. 38:7 (1990)). Stimulation of guanylate cyclase by S-nitroso-BSA was attenuated by methylene blue.

[6] = Infusion into anesthetized dogs (blood pressure, coronary flow); format: in vivo, dog
Source text: as §1

human airways [7] = assay: Airway cGMP levels; format: cell-based; settings: 100 μM
Experimental: (§4) The effect of guanylate cyclase inhibitors upon S-nitroso-protein-induced airway relaxation and cGMP increase was assessed, using the previously described bioassay and cyclic nucleotide assay procedures. The bronchodilatory effect of S-nitroso-albumin was examined in human airways (5–12 mm outer diameter).

[8] = Stability of S-nitroso-albumin in the presence of oxygen and redox metals; format: physicochemical; settings: Cu^+, Fe^2+, or Cu^2+ (50 μM) or defuroxamine or EDTA (10 μM)
Experimental: The stability of S-nitroso-albumin in the presence of oxygen and redox metals was assessed.
In addition, S-nitroso-protein stability was assessed in the presence of various redox metals or chelating agents.

human airways [9] = assay: Bronchodilatory effect in human airways contracted with methacholine; format: cell-based
Source text: as §2, §3, §4

[10] = Hemoglobin-oxygen association curve; settings: S-nitrosylation of hemoglobin
Source text: Thus, the reaction between S-nitrosothiols and hemoglobin not only eliminates the inhibition of oxygen binding which occurs from the reaction with uncharged NO and generation of methemoglobin, but it actually increases oxygen binding.

[11] = clinically used comparator; cited from earlier work
[12] = acidified NaNO2, NO gas or EDRF from endothelial cells

hemoglobin, sequence (P01966 2-142): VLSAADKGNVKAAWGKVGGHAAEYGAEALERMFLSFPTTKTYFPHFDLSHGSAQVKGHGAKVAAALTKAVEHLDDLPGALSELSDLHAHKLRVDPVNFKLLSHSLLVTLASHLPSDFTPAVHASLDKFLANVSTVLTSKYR
hemoglobin, sequence (P02070 whole entry): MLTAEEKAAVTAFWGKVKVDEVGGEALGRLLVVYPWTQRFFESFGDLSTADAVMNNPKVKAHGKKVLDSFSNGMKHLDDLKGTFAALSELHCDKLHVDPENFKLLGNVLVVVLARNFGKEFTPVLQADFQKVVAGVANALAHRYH

Compound: [N]=O [NO, nitric oxide, reference compound]
- % Relaxation ([1]; 150 nM, contraction with 1 μM epinephrine, mean ±S.D., n=4): 1.0 ± 1.7%
- normalized extent of aggregation (gel-filtered platelets [2]; NO generated from NaNO2 (150 nM), n=5): 0.98±0.11
- effect on the extent of platelet aggregation (gel-filtered platelets [2]; NOx generated from NaNO2): no significant effect
- reaction at the redox metal (iron-binding site) of hemoglobin (hemoglobin): reacted instantaneously

Compound: O=N[O-].[Na+] [NaNO2, Sodium nitrite, reference compound]
- effect on vessel tone (sentence negated: neither ... had) ([1]; concentrations up to 15 μM): any significant effect
- effect on platelet aggregation (sentence negated: neither ... had) (gel-filtered platelets [3]; concentrations up to 15 μM): any significant effect

Compound: CC(=O)N[C@@H](CSN=O)C(=O)O [SNOAC, S-nitroso-N-acetylcysteine]
- reaction at the redox metal (iron-binding site) of hemoglobin (hemoglobin): no reaction

Compound: NO-BSA: BSA loaded with NO at a ratio of 20:1 in 0.5 N HCl (Example 14)
- vessel relaxation with increasing concentrations of NO loaded ([1]; BSA loaded with NO as in Example 14): increase in vessel relaxation

Compound: S-nitroso-BSA: S-nitrosylated bovine serum albumin
- vasorelaxant potency by method of synthesis [1, 12]: essentially equipotent
- character of relaxation response ([1]; compared with EDRF, NO, low molecular weight S-nitrosothiols): less rapid, but much more persistent, relaxation response
- platelet inhibitory potency by method of synthesis (gel-filtered platelets [2]; [12]): essentially equipotent
- bleeding times [4]: significantly prolonged
- platelet-dependent cyclic thrombus formation [4]: inhibited
- relaxation of airway smooth muscle (trachea rings; 0.01 μM): 50%
- relaxation of airway smooth muscle (trachea rings; 10 μM): over 75%
- platelet inhibitory effect in platelet-rich plasma and whole blood (gel-filtered platelets [3]; 1.4 μM, impedance aggregometry for whole blood): confirmed
- increases in cyclic GMP over basal levels relative to BSA alone ([5]; 18 μM, n=2): 3.5 fold
- stimulation of guanylate cyclase in presence of methylene blue ([5]; methylene blue): attenuated
- blood pressure [6]: prolonged decreases in blood pressure
- coronary flow [6]: increased coronary flow

Compound: S-nitroso-albumin: S-nitrosylated albumin used in Examples 17 and 18; likely the same as S-nitroso-BSA
- airway cGMP levels (human airways [7]): increases over control
- decomposition in presence of redox metals or chelating agents [8]: resistant to decomposition
- effect of hemoglobin on airway relaxation (human airways [9]; hemoglobin (100 μM)): little effect
- airway relaxation in presence of methylene blue or LY83583 (human airways [9]; methylene blue (10^−4) or LY83583 (5×10^−5)): not significantly inhibited
- IC50 (human airways [9]; rings contracted with methacholine (7 μM), read-out: IC50 of airway relaxation): 22 µM

Compound: S-nitroso-hemoglobin: derived from the nitrosylation of hemoglobin
- hemoglobin-oxygen association curve [10]: leftward shift
- formation of methemoglobin (hemoglobin): does not result in the formation of methemoglobin

Compound: nitroprusside
- effect on coronary flow [11]: deleterious effects on coronary flow
